Data set [1] has as its system tumor cell line LoVo. The data set is described as follows: In vitro cell viability test (CellTiter-Glo), LoVo cell proliferation inhibition. It is filed as cell-based. Particulars: Homo sapiens. On the procedure:
In this experiment, inhibitory effect of the compounds on cell proliferation was investigated by testing influence on cell viability in vitro in tumor cell line LoVo.
CellTiter-Glo Luminescence Cell Viability Test
The following protocols were performed according to instruction of PromegaCellTiter-Glo Luminescence cell viability test Kit (Promega-G7573). • (1) Thawing CellTiter-Glo buffer and allowing it to acclimate to room temperature. • (2) Allowing CellTiter-Glo substrate to acclimate to room temperature. • (3) Adding CellTiter-Glo buffer to a bottle of CellTiter-Glo substrate to dissolve the substrate to prepare CellTiter-Glo working solution. • (4) Vortexing slowly to full dissolution. • (5) Removing the cell culture plate and balancing it to room temperature for 30 min. • (6) Adding 50 μL (equivalent to half volume of cell culture medium in each well) of CellTiter-Glo working solution to each well, wrapping the cell plate with aluminum foil to protect from light. • (7) Shaking the culture plate on an orbital shaker for 2 min to induce cell lysis. • (8) Placing the culture plate at room temperature for 10 min to stabilize the luminescence signal. • (9) Detecting the luminescence signal on SpectraMax i3× of Molecular Devices plate reader. Data Analysis
The following formula was used to calculate the inhibition rate of the test compound (Inhibition rate, IR): IR(%)=(1−(RLU Compound−RLU Blank control)/(RLU Vehicle control−RLU Blank control))*100%.
The inhibition rates of different concentrations of compounds were calculated in Excel, and GraphPad Prism software was used to make the inhibition curve and calculate relevant parameters, including the minimum inhibition rate, the maximum inhibition rate and IC50.
In general terms: ATP-based viability assays read luminescence as a measure of living cells.

The target in data set [2] is human ATR kinase (Homo sapiens (Human), UniProt Q13535). The data set is described as follows: In vitro evaluation of inhibitory activity on human ATR kinase (HTRF, ATR/ATRIP(h), GST-cMyc-p53 substrate). Format: biochemical. Particulars: 50 nM GST-cMyc-p53, 30 min room temperature. Here is the method:
IC50 values were determined to evaluate the inhibitory activity of the tested compounds on human ATR kinase.
ATR/ATRIP(h) was incubated in assay buffer containing 50 nM GST-cMyc-p53 and Mg/ATP (according to concentration required). The reaction was initiated by adding Mg/ATP mixture. After incubating for 30 min at room temperature, a stop solution containing EDTA to was added to terminate the reaction. Finally, detecting buffer containing d^2-labeled anti-GST monoclonal antibody and europium-labeled anti-phospho Ser15 antibody against phosphorylated p^53 were added. Then the plate was read in time-resolved fluorescence mode and homogeneous time resolution was performed.
The fluorescence (HTRF) signal was determined according to the formula HTRF=10000×(Em665 nm/Em620 nm).
IC50 data was analyzed using XLFit version 5.3 (ID Business Solutions). Non-linear regression analysis was used to fit the sigmoidal dose response (variable slope) curve.
For orientation: TR-FRET usually uses a lanthanide donor and a delayed reading to cut background.

A short description of data set [3]: Pharmacokinetic properties in vivo in female Balb/c Nude mice. On the set-up: species or system mouse. On the procedure: Experimental method: The purpose of this study was to determine the pharmacokinetic parameters of the compounds and calculate the oral bioavailability in female Balb/c Nude mice.
The project involved 6 female Balb/c Nude mice. 3 mice were administered intravenously at a dose of 1 mg/kg, and plasma samples were collected at 0 h (before administration) and 0.0833, 0.25, 0.5, 1, 2, 4, 6, 8 and 24 h after administration, other 3 mice were given by oral gavage at a dose of 10 mg/kg or 25 mg/kg, and plasma samples were collected at 0 h (before dosing) and 0.5, 1, 2, 3, 4, 6, 8, 24 h after administration. Then LC/MS/MS analysis was performed for the collected samples and data was collected. The collected analysis data was calculated for relevant pharmacokinetic parameters with Phoenix WinNonlin 6.2.1 software.

Setting [4] is: mouse, plasma, 10 mg/kg oral gavage.

pIC50: −log10 of the molar value.

Sequence of human ATR kinase (Q13535 whole entry): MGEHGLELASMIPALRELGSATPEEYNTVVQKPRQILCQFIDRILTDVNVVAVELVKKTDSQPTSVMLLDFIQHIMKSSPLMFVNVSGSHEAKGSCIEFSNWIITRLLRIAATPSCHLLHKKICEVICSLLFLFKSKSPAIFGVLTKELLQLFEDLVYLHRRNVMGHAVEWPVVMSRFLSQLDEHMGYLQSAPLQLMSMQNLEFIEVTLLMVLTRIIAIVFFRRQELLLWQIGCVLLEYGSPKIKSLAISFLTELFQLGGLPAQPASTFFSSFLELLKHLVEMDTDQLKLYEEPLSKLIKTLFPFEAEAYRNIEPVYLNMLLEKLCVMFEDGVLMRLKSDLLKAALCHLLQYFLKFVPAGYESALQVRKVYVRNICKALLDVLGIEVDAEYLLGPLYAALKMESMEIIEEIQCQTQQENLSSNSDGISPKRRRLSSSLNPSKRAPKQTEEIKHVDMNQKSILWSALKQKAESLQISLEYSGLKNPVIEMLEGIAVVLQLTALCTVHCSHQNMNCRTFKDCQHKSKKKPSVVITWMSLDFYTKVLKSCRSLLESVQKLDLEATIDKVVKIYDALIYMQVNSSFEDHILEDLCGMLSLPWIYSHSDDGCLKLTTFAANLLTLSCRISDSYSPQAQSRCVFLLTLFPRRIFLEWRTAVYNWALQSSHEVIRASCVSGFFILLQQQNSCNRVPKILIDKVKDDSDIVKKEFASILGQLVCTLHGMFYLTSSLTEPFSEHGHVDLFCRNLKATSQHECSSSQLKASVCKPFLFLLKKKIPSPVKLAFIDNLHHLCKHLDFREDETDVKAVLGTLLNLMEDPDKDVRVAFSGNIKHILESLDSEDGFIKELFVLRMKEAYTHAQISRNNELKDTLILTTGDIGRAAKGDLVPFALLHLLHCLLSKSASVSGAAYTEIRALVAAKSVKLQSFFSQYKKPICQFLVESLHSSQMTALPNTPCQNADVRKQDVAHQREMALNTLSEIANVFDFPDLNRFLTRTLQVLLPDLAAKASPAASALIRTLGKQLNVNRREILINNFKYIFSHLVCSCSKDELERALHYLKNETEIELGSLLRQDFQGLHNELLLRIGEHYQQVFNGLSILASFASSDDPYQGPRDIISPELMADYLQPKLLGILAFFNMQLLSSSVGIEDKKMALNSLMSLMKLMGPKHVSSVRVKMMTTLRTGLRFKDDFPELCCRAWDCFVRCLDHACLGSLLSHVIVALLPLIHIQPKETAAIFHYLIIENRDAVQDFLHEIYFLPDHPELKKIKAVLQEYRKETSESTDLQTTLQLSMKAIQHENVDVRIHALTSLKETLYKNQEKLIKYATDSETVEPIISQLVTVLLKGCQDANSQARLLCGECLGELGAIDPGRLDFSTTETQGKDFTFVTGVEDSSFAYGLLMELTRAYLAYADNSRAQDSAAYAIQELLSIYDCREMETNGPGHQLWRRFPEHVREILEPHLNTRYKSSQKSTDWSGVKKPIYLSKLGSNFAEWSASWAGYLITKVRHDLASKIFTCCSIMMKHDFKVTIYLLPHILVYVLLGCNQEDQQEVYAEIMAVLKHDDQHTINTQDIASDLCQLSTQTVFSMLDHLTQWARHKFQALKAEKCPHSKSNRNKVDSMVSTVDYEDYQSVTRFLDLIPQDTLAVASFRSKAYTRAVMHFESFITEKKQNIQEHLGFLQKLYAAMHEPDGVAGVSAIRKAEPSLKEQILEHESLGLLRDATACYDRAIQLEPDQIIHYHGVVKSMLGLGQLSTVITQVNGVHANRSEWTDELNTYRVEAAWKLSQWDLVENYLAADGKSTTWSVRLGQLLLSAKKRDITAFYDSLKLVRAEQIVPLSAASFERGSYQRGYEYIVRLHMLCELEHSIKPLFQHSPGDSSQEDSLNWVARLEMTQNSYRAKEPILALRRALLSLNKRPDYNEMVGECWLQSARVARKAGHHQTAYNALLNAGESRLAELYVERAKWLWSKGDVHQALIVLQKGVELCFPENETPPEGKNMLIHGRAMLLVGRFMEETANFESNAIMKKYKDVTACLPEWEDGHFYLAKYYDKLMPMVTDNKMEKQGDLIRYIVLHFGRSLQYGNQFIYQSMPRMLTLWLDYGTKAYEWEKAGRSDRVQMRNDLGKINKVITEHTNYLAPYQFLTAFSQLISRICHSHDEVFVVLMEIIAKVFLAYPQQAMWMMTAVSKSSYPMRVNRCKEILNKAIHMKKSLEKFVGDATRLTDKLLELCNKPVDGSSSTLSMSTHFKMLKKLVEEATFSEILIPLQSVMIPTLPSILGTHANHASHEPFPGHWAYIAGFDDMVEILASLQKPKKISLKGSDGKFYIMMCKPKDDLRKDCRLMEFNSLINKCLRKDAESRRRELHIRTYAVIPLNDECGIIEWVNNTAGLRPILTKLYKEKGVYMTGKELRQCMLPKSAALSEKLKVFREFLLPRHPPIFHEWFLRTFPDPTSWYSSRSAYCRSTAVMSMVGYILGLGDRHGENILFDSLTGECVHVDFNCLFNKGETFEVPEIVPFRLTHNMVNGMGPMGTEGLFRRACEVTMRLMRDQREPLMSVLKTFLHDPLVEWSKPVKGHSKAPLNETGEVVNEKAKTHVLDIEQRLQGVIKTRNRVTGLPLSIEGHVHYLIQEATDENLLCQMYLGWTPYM
Sequence of human ATR kinase (Q8WXE1 whole entry partner): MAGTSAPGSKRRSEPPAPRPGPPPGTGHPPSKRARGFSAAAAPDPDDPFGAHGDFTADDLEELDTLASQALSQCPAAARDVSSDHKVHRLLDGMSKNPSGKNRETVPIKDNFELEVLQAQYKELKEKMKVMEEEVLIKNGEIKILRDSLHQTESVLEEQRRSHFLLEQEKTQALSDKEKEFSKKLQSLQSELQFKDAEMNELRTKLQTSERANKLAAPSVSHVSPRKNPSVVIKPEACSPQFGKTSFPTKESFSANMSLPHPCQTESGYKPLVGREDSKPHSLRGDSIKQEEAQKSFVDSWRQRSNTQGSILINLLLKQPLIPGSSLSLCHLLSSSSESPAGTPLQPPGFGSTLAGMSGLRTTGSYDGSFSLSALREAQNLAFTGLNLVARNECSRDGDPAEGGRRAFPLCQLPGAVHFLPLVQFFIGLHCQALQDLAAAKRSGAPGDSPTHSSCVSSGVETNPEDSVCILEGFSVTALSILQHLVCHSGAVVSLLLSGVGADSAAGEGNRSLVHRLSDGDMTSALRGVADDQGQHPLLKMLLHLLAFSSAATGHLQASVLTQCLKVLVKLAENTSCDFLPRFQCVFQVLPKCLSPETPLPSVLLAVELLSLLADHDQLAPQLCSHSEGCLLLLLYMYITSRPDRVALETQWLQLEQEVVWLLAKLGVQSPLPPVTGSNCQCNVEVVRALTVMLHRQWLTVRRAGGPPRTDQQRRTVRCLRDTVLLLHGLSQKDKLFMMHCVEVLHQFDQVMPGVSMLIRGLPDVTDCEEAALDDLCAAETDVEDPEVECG

Broadly, the pIC50 is the negative decadic logarithm of the IC50, by convention in mol/L. Low values mean a large IC50, high ones a small IC50. Consider `C[C@@H]1COCCN1c1cc(C2([S@](C)(=N)=O)CC2)nc(-c2ccnc3[nH]ccc23)n1` [AZD6738, reference compound], for which the pIC50 in data set [1] is 6.09.
In data set [2], `C[C@@H]1COCCN1c1cc(-c2cccc3[nH]ccc23)nc(-c2ccnn2C)c1` [WX01] had a pIC50 of 6.92.
Regarding `C[C@@H]1COCCN1c1cc(-c2ccnn2C)nc(-c2cccc3[nH]ccc23)n1` [WX02], in data set [2], the negative-log IC50 (pIC50) is 7.14.
Regarding `Cc1cc(-c2cc(N3CCOC[C@H]3C)nc(-c3cccc4[nH]ccc34)n2)n(C)n1` [WX03], the pIC50 in data set [2] was 7.14.
Still for that read-out and setting: then `C[C@@H]1COCCN1c1nc(-c2cccc3[nH]ccc23)cc(-c2ccnn2C)n1` [WX04], with 7.04; and `CCn1nccc1-c1cc(-c2cccc3[nH]ccc23)nc(N2CCOC[C@H]2C)n1` [WX05], with 7.28; and `C[C@@H]1COCCN1c1nc(-c2ccnc3[nH]ccc23)cc(-c2ccnn2C)n1` [WX06], with 6.61.
`Cc1cnn(C)c1-c1cc(-c2ccnc3[nH]ccc23)nc(N2CCOC[C@H]2C)n1` [WX07]: the negative-log IC50 (pIC50) in data set [2] is 7.12.
Turning to `CCn1nccc1-c1cc(-c2ccnc3[nH]ccc23)nc(N2CCOC[C@H]2C)n1` [WX08], the pIC50 in data set [2] was 6.90.
In the case of `C[C@@H]1COCCN1c1nc(-c2cc(F)cc3[nH]ccc23)cc(-c2ccnn2C)n1` [WX09], the negative logarithm of the IC50 (pIC50) in data set [2] was 6.43. Against the preceding compound, the pIC50 is 0.47 log units lower.
Consider `Cc1cnn(C)c1-c1cc(-c2cc(F)cc3[nH]ccc23)nc(N2CCOC[C@H]2C)n1` [WX10], for which the negative logarithm of the IC50 (pIC50) in data set [2] was 7.10.
With `CCn1nccc1-c1cc(-c2cc(F)cc3[nH]ccc23)nc(N2CCOC[C@H]2C)n1` [WX11], in data set [2], the pIC50 is 6.72.
With `Cc1cnn(C)c1-c1cc(-c2cccc3[nH]ccc23)nc(N2CCOC[C@H]2C)n1` [WX12], the pIC50 in data set [2] was 7.39.
In data set [2], `Cc1cnn(C)c1-c1cc(N2CCOC[C@H]2C)nc(-c2cccc3[nH]ccc23)n1` [WX13] gave a pIC50 of 7.62.
Still for that read-out and setting: then `CCn1nccc1-c1cc(N2CCOC[C@H]2C)nc(-c2cccc3[nH]ccc23)n1` [WX14], with 7.30; and `Cc1cc(-c2cc(N3CCOC[C@H]3C)nc(-c3ccnc4[nH]ccc34)n2)n(C)n1` [WX16], with 7.01.
`Cc1cnn(C)c1-c1cc(N2CCOC[C@H]2C)nc(-c2ccnc3[nH]ccc23)n1` [WX17] showed a pIC50 in data set [2] of 7.92. Against the preceding compound, the pIC50 is 0.91 log units higher.
In data set [2], `CCn1nccc1-c1cc(N2CCOC[C@H]2C)nc(-c2ccnc3[nH]ccc23)n1` [WX18] had a pIC50 of 7.08.
The same measure, in the same setting: then `C[C@@H]1COCCN1c1cc(-c2ccnn2C)nc(-c2cc(F)cc3[nH]ccc23)n1` [WX19], with 7.09; and `Cc1cc(-c2cc(N3CCOC[C@H]3C)nc(-c3cc(F)cc4[nH]ccc34)n2)n(C)n1` [WX20], with 7.16; and `Cc1cnn(C)c1-c1cc(N2CCOC[C@H]2C)nc(-c2cc(F)cc3[nH]ccc23)n1` [WX21], with 7.57.
As to `CCn1nccc1-c1cc(N2CCOC[C@H]2C)nc(-c2cc(F)cc3[nH]ccc23)n1` [WX22], the negative logarithm of the IC50 (pIC50) in data set [2] is 7.19.
With `Cc1n[nH]c(C)c1-c1cc(N2CCOC[C@H]2C)nc(-c2ccnc3[nH]ccc23)n1` [WX23], in data set [2], the negative-log IC50 (pIC50) is 6.94. This pIC50 lies 0.25 log units lower than the previous one.
Regarding `Cc1nn(C)c(C)c1-c1cc(N2CCOC[C@H]2C)nc(-c2ccnc3[nH]ccc23)n1` [WX24], the negative-log IC50 (pIC50) in data set [2] was 7.74.
In data set [2], `Cc1nn(C)cc1-c1cc(N2CCOC[C@H]2C)nc(-c2ccnc3[nH]ccc23)n1` [WX25] gave a negative logarithm of the IC50 (pIC50) of 7.04.
For the compound `Cc1c(-c2cc(N3CCOC[C@H]3C)nc(-c3ccnc4[nH]ccc34)n2)cnn1C` [WX26], in data set [2], the negative-log IC50 (pIC50) is 6.91. This pIC50 and that of the compound before are within 0.2 log units of each other.
`C[C@@H]1COCCN1c1cc(-c2cn(C)nc2C(F)(F)F)nc(-c2ccnc3[nH]ccc23)n1` [WX27] had a pIC50 in data set [2] of 6.91.
The same measure, in the same setting: then `Cc1noc(C)c1-c1cc(N2CCOC[C@H]2C)nc(-c2ccnc3[nH]ccc23)n1` [WX28], with 7.33; and `C[C@@H]1COCCN1c1cc(-c2cnn(C)c2CO)nc(-c2ccnc3[nH]ccc23)n1` [WX29], with 7.02; and `Cc1noc(C)c1-c1cc(-c2ccnc3[nH]ccc23)nc(N2CCOC[C@H]2C)c1` [WX30], with 7.46.
The same measure, in the same setting: then `Cc1cnn(C)c1-c1cc(-c2ccnc3[nH]ccc23)nc(N2CCOC[C@H]2C)c1` [WX31], with 7.41; and `Cc1n[nH]c(C)c1-c1cc(-c2ccnc3[nH]ccc23)nc(N2CCOC[C@H]2C)c1` [WX32], with 7.46; and `C[C@@H]1COCCN1c1cc(-c2ccnn2C)cc(-c2ccnc3[nH]ccc23)n1` [WX33], with 6.70.
In general, AUC(0-t) refers to exposure summed from dosing to a finite time, without extrapolation to infinity. A higher AUC(0-t) goes with more exposure. The term clearance denotes a measure of how efficiently the substance is removed, as volume per time. By half-life is commonly meant the time needed for the level to fall by half in the phase considered. Low values mean fast loss, high ones slow loss. Usually Cmax stands for the maximum level reached in the sampled fluid or tissue. Take `Cc1nnn(C)c1-c1cc(N2CCOC[C@H]2C)nc(-c2ccnc3[nH]ccc23)n1` [WX34]: in data set [3] (mouse, plasma, 1 mg/kg IV), the area under the curve AUC(0-t) worked out at 0.787 µM·h, the clearance was 53.9 mL/min/kg and the half-life was 1.22 h. For the same compound, the C0 in data set [3] (mouse, plasma, 1 mg/kg IV, drug concentration at 0 min) was 1260 nM. Further, in data set [3] (mouse, plasma, 1 mg/kg IV, read-out: Vdss), the Vd amounted to 3.72 L/kg. Besides, in data set [3] (setting [4]), the area under the curve AUC(0-t) was determined as 5.68 µM·h, the peak concentration (Cmax) stood at 2860 nM and the half-life is 1.16 h. In data set [3] (oral bioavailability, 10 mg/kg oral vs 1 mg/kg IV), this compound had an F of 71.7%. Moreover, the negative logarithm of the IC50 (pIC50) in data set [2] is 7.16.
In turn, `Cc1nnn(C)c1-c1cc(N2CCOC[C@H]2C)nc(-c2cccc3[nH]ccc23)n1` [WX35] gave a pIC50 in data set [2] of 7.72.
For `Cc1nnn(C)c1-c1cc(N2CCOC[C@H]2C)nc(-c2cc(F)cc3[nH]ccc23)n1` [WX36], the pIC50 in data set [2] was 7.85.
`Cc1nnn(C)c1-c1cc(N2CCOC[C@H]2C)nc(-c2cc(CO)cc3[nH]ccc23)n1` [WX37] showed a pIC50 in data set [2] of 7.80.
In the case of `Cc1nnn(C)c1-c1cc(-c2cc(CO)cc3[nH]ccc23)nc(N2CCOC[C@H]2C)c1` [WX38], the negative-log IC50 (pIC50) in data set [2] was 7.11.
Consider `Cc1nnn(C)c1-c1cc(-c2ccnc3[nH]ccc23)nc(N2CCOC[C@H]2C)c1` [WX39], for which the negative logarithm of the IC50 (pIC50) in data set [2] was 7.38.
As to `COc1cc(C)c(-c2cc(N3CCOC[C@H]3C)nc(-c3ccnc4[nH]ccc34)n2)cn1` [WX40], the negative logarithm of the IC50 (pIC50) in data set [2] is 7.82. Against the preceding compound, the pIC50 is 0.44 log units higher.
In turn, `Cc1nc(F)ccc1-c1cc(N2CCOC[C@H]2C)nc(-c2ccnc3[nH]ccc23)n1` [WX41] had a negative-log IC50 (pIC50) in data set [2] of 7.11.
The same measure, in the same setting: then `COCc1cnn(C)c1-c1cc(N2CCOC[C@H]2C)nc(-c2ccnc3[nH]ccc23)n1` [WX43], with 7.19; and `Cc1ncn(C)c1-c1cc(N2CCOC[C@H]2C)nc(-c2ccnc3[nH]ccc23)n1` [WX44], with 7.19.
As to `Cc1nnn(C2CC2)c1-c1cc(N2CCOC[C@H]2C)nc(-c2ccnc3[nH]ccc23)n1` [WX47], the pIC50 in data set [1] is 6.12; in data set [2] it was 7.19.
In data set [2], `Cc1nnc(C)n1-c1cc(-c2ccnc3[nH]ccc23)nc(N2CCOC[C@H]2C)c1` [WX48] gave a pIC50 of 6.98.
`Cc1nnn(C2CC2)c1-c1cc(N2CCOC[C@H]2C)nc(-c2cc(CO)cc3[nH]ccc23)n1` [WX49] showed a negative logarithm of the IC50 (pIC50) in data set [2] of 7.59. This pIC50 is 0.61 log units higher than that of the compound before.
Turning to `Cc1noc(C)c1-c1cc(N2CCOC[C@H]2C)nc(-c2cc(CO)cc3[nH]ccc23)n1` [WX51], the pIC50 in data set [2] was 7.49.
On to `Cc1cc(-c2nc(-c3c(C)nnn3C)cc(N3CCOC[C@H]3C)n2)c2cc[nH]c2c1` [WX52], for which, in data set [2], the negative logarithm of the IC50 (pIC50) was 7.70.
`Cc1cnn(C)c1-c1cc(N2CCOC[C@H]2C)nc(-c2cc(C(=O)O)cc3[nH]ccc23)n1` [WX53] gave a pIC50 in data set [2] of 7.08.
In data set [2], `Cc1nnc(C)n1-c1cc(-c2cc(F)cc3[nH]ccc23)nc(N2CCOC[C@H]2C)c1` [WX54] had a negative logarithm of the IC50 (pIC50) of 7.57. Compared with the last compound, the pIC50 is 0.49 log units higher.
Same read-out and setting: then `Cc1nnc(C)n1-c1cc(-c2cccc3[nH]ccc23)nc(N2CCOC[C@H]2C)n1` [WX55], with 7.70; and `Cc1nnc(C)n1-c1cc(-c2cc(F)cc3[nH]ccc23)nc(N2CCOC[C@H]2C)n1` [WX56], with 7.34; and `Cc1nnc(C)n1-c1cc(-c2cccc3[nH]ccc23)nc(N2CCOC[C@H]2C)c1` [WX57], with 7.55.
